Key:
Experiment in all cases: relative viability (nuclei count vs DMSO), 5 days (fraction); higher = more cells survive
[1] = compound: CN[C@@H]1C[C@H]2O[C@@](C)([C@@H]1OC)n1c3ccccc3c3c4c(c5c6ccccc6n2c5c31)C(=O)NC4 [Staurosporine] + Cc1cc(Nc2cc(N3CCN(C)CC3)nc(Sc3ccc(NC(=O)C4CC4)cc3)n2)n[nH]1 [Tozasertib] (partner 0.1 µM)
Procedure, shortened: (§1)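 Lung cancer cell lines were seeded in 1536-well plates and dosed by pin tool the next day, with either a single drug or a fixed anchor-drug dose combined with five library-drug doses (not always all listed) spaced in √10 steps. Five days later, one step fixed the cells and stained their nuclei (final 0.05% Triton X-100, 1% formaldehyde, 1 ug/ml Hoechst), and nuclei were counted on 4× images. Relative viability is the nuclei count in treated wells divided by the count in vehicle wells, and each value is the median of duplicate plates.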

[2] = compound: CN[C@@H]1C[C@H]2O[C@@](C)([C@@H]1OC)n1c3ccccc3c3c4c(c5c6ccccc6n2c5c31)C(=O)NC4 [Staurosporine] + CC(=O)c1c(C)c2cnc(Nc3ccc(N4CCNCC4)cn3)nc2n(C2CCCC2)c1=O [Palbociclib] (partner 0.5 µM)
Procedure, shortened: as §1

[3] = compound: CN[C@@H]1C[C@H]2O[C@@](C)([C@@H]1OC)n1c3ccccc3c3c4c(c5c6ccccc6n2c5c31)C(=O)NC4 [Staurosporine] + C[C@]1(O)C[C@@H](c2nc(-c3ccc4ccc(-c5ccccc5)nc4c3)c3c(N)nccn32)C1 [Linsitinib] (partner 1 µM)
Procedure, shortened: as §1

[4] = compound: CC1=C(CC(=O)O)c2cc(F)ccc2/C1=C\c1ccc([S+](C)[O-])cc1 [Sulindac] + NC(=O)Nc1cc(-c2cccc(F)c2)sc1C(=O)N[C@H]1CCCNC1 [AZD7762] (partner 0.2 µM)
Procedure, shortened: as §1

Cell Line	relative viability ([1]; first compound 0.005 µM)	relative viability ([1]; first compound 0.01581 µM)	relative viability ([1]; first compound 0.05 µM)	relative viability ([1]; first compound 0.1581 µM)	relative viability ([1]; first compound 0.5 µM)	relative viability ([2]; first compound 0.005 µM)	relative viability ([2]; first compound 0.01581 µM)	relative viability ([2]; first compound 0.05 µM)	relative viability ([2]; first compound 0.5 µM)	relative viability ([3]; first compound 0.005 µM)	relative viability ([3]; first compound 0.01581 µM)	relative viability ([3]; first compound 0.05 µM)	relative viability ([3]; first compound 0.1581 µM)	relative viability ([3]; first compound 0.5 µM)	relative viability ([4]; first compound 0.08 µM)	relative viability ([4]; first compound 0.253 µM)	relative viability ([4]; first compound 0.8 µM)	relative viability ([4]; first compound 2.53 µM)	relative viability ([4]; first compound 8 µM)	relative viability ([2]; first compound 0.1581 µM)
NCI-H2405	0.586	0.256	0.0844	0.0771	0.0789	0.196	0.172	0.122	0.0886	0.214	0.127	0.113	0.0901	0.0874	0.86	0.811	0.642	0.691	0.995	
NCI-H3122	0.441		0.246	0.134	0.0837	0.248		0.225	0.171	1.11	0.561	0.874	0.544	0.247	1.2	1.08	1.01	0.968	0.947	
PC-3 [JPC-3]	0.919	0.598	0.512	0.321	0.344	0.563	0.513	0.398	0.343	0.986		0.723	0.559	0.478	0.855	0.805	0.697	0.715	1.06	0.398
PC-14	0.514	0.218	0.0637	0.0512	0.0343	0.174	0.077	0.0379	0.0434	0.892	0.633	0.0982	0.0802	0.0859	0.377	0.315	0.35	0.284	0.364	0.0411
RERF-LC-KJ	0.414	0.433	0.219	0.178	0.176	0.914	0.916	0.475	0.26	0.895	0.804	0.431	0.213	0.166	1.41	1.18	0.632	0.993	1.05	0.4

— the supplement of paper PMC10307832
